In patent publication US20210169854A1, “3'-[(2Z)-[1-(3,4-dimethylphenyl)-1,5-dihydro-3-methyl-5-oxo-4H-pyrazol-4-ylidene]hydrazino]-2'-hydroxy-[1,1'-biphenyl]-3-carboxylic acid and its salts formulation” (NOVARTIS AG, priority 2019, published 2021):
Where two headings read alike, the source gives them in different places.

Columns and labels:
[1] = cited from earlier work
[2] = cited from earlier work; remark: listed apart in the source
[3] = Solubility and permeability of eltrombopag (general statements, data not shown); format: physicochemical; conditions: even in the form of bis-monoethanolamine salt
[4] = standard high-fat breakfast; cited from earlier work
[5] = cited from earlier work; remark: listed apart in the source
[6] = single 25-mg dose for oral suspension 2 hours after the high-calcium meal
[7] = single 25-mg dose for oral suspension 2 hours before the high-calcium meal
[8] = single 25-mg dose for oral suspension with a high-calcium, moderate-fat, moderate-calorie meal

Compound	AUC elevation compared with the fasted state ([1]; after a high fat meal) [fold]	Cmax elevation compared with the fasted state ([1]; after a high fat meal) [fold]	AUC elevated compared with the fasted state ([1]; after a low fat meal) [fold]	Cmax elevated compared with the fasted state ([1]; after a low fat meal) [fold]	reduction of plasma eltrombopag AUCO-∞ [2, 6] [%]	reduction of plasma eltrombopag Cmax [2, 6] [%]	reduction of plasma eltrombopag AUCO-∞ [2, 7] [%]	reduction of plasma eltrombopag Cmax [2, 7] [%]	reduction of plasma eltrombopag AUCO-∞ [2, 8] [%]	reduction of plasma eltrombopag Cmax [2, 8] [%]	solubility in water and in a number of liquid/semisolid surfactants [3]	decrease of plasma eltrombopag AUCO-∞ [4]	decrease of plasma eltrombopag Cmax [4] [%]	solubility (BCS context) [5]
C[C@]12CC[C@H](O)CC1=CC[C@@H]1[C@@H]2CC[C@]2(C)C(c3cccnc3)=CC[C@@H]12 [abiraterone]	10	17	5	7	–	–	–	–	–	–	–	–	–	–
CC1=NN(c2ccc(C)c(C)c2)C(=O)/C1=N\Nc1cccc(-c2cccc(C(=O)O)c2)c1O [eltrombopag, 3′-[(2Z)-[1-(3,4-dimethylphenyl)-1,5-dihydro-3-methyl-5-oxo-4H-pyrazol-4-ylidene]hydrazino]-2′-hydroxy-[1,1′-biphenyl]-3-carboxylic acid]	–	–	–	–	47	48	20	14	75	79	low solubility	approximately 59%	65	low soluble
